Test results from ChEMBL document CHEMBL4354864, “Bicyclic α-Iminophosphonates as High Affinity Imidazoline I2 Receptor Ligands for Alzheimer's Disease” (J Med Chem, 2020).
≈ marks a conversion by molar mass, not a printed value. Calls of active or inactive are those of the source. The rule behind the calls is not given here.

Experiments:
[1] = Solubility of compound in 99% PBS buffer incubated for 2 hrs by nephelometry; format: physicochemical
[2] = Stability in mouse liver microsomes at 5 uM incubated for 60 mins by UPLC-MS/MS analysis; format: ADME, Microsome; details: 1 h
Mus musculus [3] = experiment: Antineuroinflammatory activity in mouse model of 5xFAD assessed as reduction in sAPPbeta expression at 5 mg/kg, po administered for 4 weeks by Western blot analysis; format: functional, organism-based
HeLa = experiment: Cytotoxicity against human HeLa cells assessed as effect on cell morphology at 100 uM incubated for 3 to 5 days by microscopic analysis; format: cell-based
Mus musculus [4] = experiment: Effect on FADD in CD-1 mouse at 20 mg/kg, ip administered for 5 days and measured after 1 hr of last dosage by Westernblot analysis; format: functional, organism-based
Mus musculus [5] = experiment: Antineuroinflammatory activity in mouse model of 5xFAD assessed as reduction in Cxcl10 expression at 5 mg/kg, po administered for 4 weeks by qRT-PCR analysis; format: functional, organism-based
Vero [6] = experiment: Cytotoxicity against monkey Vero cells assessed as reduction in cell viability at 100 uM incubated for 3 to 5 days by colorimetric analysis; format: cell-based; details: chlorocebus sabaeus
Mus musculus [7] = experiment: Cognitive enhancing effect in mouse model of 5xFAD assessed as increase in recognition memory at 5 mg/kg, po administered for 28 days and measured after 24 hrs of last dosage by novel object recognition test; format: functional, organism-based
MDCK [8] = experiment: Cytotoxicity against dog MDCK cells assessed as effect on cell morphology at 100 uM incubated for 3 to 5 days by microscopic analysis; format: cell-based, Canis lupus familiaris
Mus musculus [9] = experiment: Antineuroinflammatory activity in mouse model of 5xFAD assessed as reduction in H2O2 level at 5 mg/kg, po administered for 4 weeks; format: functional, organism-based
[10] = target: T1, Gastrin/cholecystokinin type B receptor (Homo sapiens, UniProt P32239); experiment: Displacement of [125I]CCK-8s from human CCKB incubated for 60 mins by scintillation counting method
T1 sequence (P32239 whole entry): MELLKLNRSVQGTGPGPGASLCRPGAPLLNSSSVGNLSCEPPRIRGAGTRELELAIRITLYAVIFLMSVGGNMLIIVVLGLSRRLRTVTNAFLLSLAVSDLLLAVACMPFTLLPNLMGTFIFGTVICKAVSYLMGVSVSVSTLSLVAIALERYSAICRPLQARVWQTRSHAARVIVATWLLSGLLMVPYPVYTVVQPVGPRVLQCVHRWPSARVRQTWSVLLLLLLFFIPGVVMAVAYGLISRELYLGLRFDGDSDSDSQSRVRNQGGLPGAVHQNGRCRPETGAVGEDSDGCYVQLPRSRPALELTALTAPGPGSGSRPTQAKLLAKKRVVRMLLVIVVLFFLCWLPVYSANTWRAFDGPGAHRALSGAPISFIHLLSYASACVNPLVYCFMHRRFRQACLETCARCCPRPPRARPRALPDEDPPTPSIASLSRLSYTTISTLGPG

MT4 = experiment: Cytotoxicity against human MT4 cells assessed as reduction in cell viability at 100 uM incubated for 3 to 5 days by colorimetric analysis; format: cell-based; details: mt4, 100 µM
Cytochrome P450 2D6 = Cytochrome P450 2D6 (Homo sapiens, UniProt P10635); experiment: Inhibition of recombinant human CYP2D6 at 10 uM using AMMC as substrate incubated for 5 mins followed by substrate addition by fluorescence based assay; format: ADME; details: recombinant enzyme
[11] = Solubility of compound in 1% DMSO incubated for 2 hrs by nephelometry; format: physicochemical
Mus musculus [12] = experiment: Antineuroinflammatory activity in mouse model of 5xFAD assessed as effect on Hmox1 expression at 5 mg/kg, po administered for 4 weeks by qRT-PCR analysis; format: functional, organism-based
[13] = Solubility of compound in methanol incubated for 2 hrs by nephelometry; format: physicochemical
MDCK [14] = experiment: Cytotoxicity against dog MDCK cells assessed as reduction in cell viability at 100 uM incubated for 3 to 5 days by colorimetric analysis; format: cell-based, Canis lupus familiaris
Cytochrome P450 3A4 = Cytochrome P450 3A4 (Homo sapiens, UniProt P08684); experiment: Inhibition of recombinant human CYP3A4 at 10 uM using 7-benzyloxytrifluoromethyl coumarin (7-BFC) and Dibenzylfluorescein as substrate incubated for 5 mins followed by substrate addition by fluorescence based assay; format: ADME; details: recombinant enzyme
Cytochrome P450 2C9 = Cytochrome P450 2C9 (Homo sapiens, UniProt P11712); experiment: Inhibition of recombinant human CYP2C9 at 10 uM using 7-methoxy-4-(trifluoromethyl)coumarin as substrate incubated for 5 mins followed by substrate addition by fluorescence based assay; format: ADME; details: recombinant enzyme
Cytochrome P450 1A2 = target: T2, Cytochrome P450 1A2 (Homo sapiens, UniProt P05177); experiment: Inhibition of recombinant human CYP1A2 at 10 uM using 3-cyano-7-ethoxycoumarin as substrate incubated for 5 mins followed by substrate addition by fluorescence based assay; format: ADME; details: recombinant enzyme
T2 sequence (P05177 whole entry): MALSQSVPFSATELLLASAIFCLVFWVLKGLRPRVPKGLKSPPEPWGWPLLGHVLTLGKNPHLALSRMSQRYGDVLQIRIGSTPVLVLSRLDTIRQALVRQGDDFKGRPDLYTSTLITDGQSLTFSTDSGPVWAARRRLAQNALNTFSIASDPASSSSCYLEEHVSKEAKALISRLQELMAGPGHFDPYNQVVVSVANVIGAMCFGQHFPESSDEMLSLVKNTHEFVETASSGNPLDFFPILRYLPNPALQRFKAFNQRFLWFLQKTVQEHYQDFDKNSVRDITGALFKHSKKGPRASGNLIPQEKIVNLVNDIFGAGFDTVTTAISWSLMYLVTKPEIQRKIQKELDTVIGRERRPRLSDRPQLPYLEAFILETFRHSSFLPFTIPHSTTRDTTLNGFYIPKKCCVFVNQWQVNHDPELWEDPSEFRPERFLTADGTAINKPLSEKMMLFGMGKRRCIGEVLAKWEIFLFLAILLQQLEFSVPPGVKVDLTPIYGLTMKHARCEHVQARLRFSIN

Vero [15] = experiment: Cytotoxicity against monkey Vero cells assessed as effect on cell morphology at 100 uM incubated for 3 to 5 days by microscopic analysis; format: cell-based; details: chlorocebus sabaeus
[16] = Chemical stability of compound by HPLC analysis; format: physicochemical
[17] = Stability in rat liver microsomes at 5 uM incubated for 60 mins by UPLC-MS/MS analysis; format: ADME, Microsome; details: 1 h
[18] = Displacement of [3H]2-BFI from I2IR in Sprague-Dawley rat brain cortex incubated for 45 mins by liquid scintillation spectrometry
Mus musculus [19] = experiment: Cognitive enhancing effect in mouse model of 5xFAD assessed as increase in recognition memory at 5 mg/kg, po administered for 28 days and measured after 2 hrs of last dosage by novel object recognition test; format: functional, organism-based
Nischarin = Nischarin (Homo sapiens, UniProt Q9Y2I1); experiment: Displacement of [3H]clonidine from I1IR in human brain frontal cortex in presence of adrenaline incubated for 45 mins by liquid scintillation spectrometry; format: tissue-based
[20] = Cytotoxicity against human MRC5 cells assessed as reduction in cell viability incubated for 3 to 5 days by colorimetric analysis; format: cell-based
Cytochrome P450 2C19 = Cytochrome P450 2C19 (Homo sapiens, UniProt P33261); experiment: Inhibition of recombinant human CYP2C19 at 10 uM using 3-cyano-7-ethoxycoumarin as substrate incubated for 5 mins followed by substrate addition by fluorescence based assay; format: ADME; details: recombinant enzyme
[21] = Solubility of compound in water incubated for 2 hrs by nephelometry; format: physicochemical; details: buffer

Sequence of Nischarin (Q9Y2I1 whole entry): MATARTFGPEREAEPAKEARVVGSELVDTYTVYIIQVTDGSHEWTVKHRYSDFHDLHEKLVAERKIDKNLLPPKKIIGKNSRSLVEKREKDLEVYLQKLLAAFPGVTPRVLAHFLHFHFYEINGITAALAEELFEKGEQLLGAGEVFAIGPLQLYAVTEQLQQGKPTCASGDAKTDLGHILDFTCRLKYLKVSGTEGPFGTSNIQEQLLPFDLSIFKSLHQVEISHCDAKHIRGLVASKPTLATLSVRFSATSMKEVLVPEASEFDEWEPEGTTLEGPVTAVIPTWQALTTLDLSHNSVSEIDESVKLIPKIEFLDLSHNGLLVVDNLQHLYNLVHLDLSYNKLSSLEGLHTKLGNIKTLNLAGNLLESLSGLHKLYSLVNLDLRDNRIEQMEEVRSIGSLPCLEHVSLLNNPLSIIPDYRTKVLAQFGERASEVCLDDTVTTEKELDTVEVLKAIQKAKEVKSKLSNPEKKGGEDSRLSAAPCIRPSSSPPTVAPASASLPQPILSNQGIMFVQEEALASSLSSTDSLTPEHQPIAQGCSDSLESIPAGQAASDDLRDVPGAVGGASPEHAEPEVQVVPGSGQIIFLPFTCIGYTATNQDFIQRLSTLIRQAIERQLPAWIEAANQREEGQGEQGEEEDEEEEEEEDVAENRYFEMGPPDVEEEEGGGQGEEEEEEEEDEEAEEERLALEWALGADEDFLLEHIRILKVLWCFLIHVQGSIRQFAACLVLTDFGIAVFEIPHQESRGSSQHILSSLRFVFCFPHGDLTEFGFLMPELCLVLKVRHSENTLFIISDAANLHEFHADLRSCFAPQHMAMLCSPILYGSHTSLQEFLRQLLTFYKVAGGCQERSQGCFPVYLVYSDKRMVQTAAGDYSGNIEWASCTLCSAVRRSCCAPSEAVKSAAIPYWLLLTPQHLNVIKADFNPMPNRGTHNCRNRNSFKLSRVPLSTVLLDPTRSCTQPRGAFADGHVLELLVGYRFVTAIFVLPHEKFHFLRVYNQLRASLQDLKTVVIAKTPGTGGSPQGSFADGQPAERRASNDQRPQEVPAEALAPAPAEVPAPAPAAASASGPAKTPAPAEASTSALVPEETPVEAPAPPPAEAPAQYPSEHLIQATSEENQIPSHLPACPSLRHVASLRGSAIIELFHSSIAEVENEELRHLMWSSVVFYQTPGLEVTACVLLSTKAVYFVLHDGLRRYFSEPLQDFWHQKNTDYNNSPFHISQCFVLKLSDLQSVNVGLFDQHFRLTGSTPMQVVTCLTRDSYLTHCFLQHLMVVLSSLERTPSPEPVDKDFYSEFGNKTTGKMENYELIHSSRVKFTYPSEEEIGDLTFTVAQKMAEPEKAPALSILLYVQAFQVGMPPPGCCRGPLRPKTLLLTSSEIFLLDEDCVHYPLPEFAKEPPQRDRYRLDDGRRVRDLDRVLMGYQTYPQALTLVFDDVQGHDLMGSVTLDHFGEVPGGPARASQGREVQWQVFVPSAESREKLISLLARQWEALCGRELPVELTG
Sequence of Cytochrome P450 2D6 (P10635 whole entry): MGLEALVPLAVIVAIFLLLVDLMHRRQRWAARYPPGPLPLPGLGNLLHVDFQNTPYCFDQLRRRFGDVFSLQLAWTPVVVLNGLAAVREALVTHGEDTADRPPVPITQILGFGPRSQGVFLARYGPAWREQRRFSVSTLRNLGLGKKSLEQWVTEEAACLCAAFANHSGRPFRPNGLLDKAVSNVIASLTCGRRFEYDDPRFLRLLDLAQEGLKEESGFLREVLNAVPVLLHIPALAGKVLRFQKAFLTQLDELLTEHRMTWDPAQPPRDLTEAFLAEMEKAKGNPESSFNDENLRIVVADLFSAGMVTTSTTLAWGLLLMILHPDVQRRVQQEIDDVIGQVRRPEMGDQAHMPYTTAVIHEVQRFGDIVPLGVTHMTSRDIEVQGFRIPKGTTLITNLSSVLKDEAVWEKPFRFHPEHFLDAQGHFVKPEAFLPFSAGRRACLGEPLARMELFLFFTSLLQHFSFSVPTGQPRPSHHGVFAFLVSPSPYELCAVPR
Sequence of Cytochrome P450 2C9 (P11712 whole entry): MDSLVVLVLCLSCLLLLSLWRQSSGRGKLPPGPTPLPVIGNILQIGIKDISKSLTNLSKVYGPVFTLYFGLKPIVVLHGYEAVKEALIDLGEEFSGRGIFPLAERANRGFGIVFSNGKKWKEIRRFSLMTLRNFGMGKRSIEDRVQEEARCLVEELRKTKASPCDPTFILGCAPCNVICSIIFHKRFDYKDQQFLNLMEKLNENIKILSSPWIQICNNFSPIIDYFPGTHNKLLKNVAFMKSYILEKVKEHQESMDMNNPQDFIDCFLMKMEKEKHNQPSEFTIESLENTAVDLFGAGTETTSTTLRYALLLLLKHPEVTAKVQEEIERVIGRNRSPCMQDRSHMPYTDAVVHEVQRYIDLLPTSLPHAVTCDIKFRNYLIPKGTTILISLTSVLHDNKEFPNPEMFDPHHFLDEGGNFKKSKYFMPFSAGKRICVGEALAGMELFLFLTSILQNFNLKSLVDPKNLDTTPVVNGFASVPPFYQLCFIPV
Sequence of Cytochrome P450 3A4 (P08684 whole entry): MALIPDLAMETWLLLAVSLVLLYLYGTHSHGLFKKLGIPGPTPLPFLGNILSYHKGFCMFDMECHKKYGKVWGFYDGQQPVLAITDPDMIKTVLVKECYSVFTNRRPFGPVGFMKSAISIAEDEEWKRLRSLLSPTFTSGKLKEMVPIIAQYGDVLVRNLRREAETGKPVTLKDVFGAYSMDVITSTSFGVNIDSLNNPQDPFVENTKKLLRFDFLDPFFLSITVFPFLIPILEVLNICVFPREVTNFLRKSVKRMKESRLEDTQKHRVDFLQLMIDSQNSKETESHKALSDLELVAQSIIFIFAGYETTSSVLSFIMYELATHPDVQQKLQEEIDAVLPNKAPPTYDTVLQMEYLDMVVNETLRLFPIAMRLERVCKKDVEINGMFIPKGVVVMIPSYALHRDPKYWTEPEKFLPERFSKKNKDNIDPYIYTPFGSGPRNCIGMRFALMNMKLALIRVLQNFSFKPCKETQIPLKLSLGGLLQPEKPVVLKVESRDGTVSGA
Sequence of Cytochrome P450 2C19 (P33261 whole entry): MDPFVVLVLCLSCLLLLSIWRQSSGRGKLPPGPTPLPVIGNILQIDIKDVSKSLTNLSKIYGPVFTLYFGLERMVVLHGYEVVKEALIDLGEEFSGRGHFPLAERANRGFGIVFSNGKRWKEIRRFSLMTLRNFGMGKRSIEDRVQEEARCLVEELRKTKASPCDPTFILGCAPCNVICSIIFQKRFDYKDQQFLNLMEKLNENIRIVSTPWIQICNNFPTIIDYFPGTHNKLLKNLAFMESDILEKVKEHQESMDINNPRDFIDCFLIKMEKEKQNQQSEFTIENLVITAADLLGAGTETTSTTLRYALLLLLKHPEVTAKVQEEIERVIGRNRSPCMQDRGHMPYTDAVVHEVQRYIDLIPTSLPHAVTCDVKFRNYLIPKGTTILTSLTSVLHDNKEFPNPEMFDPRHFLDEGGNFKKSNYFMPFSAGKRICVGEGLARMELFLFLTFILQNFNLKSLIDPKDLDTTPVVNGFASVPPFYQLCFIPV

CCOP(=O)(OCC)C1(c2ccccc2)N=CC2C(=O)N(c3ccc(F)c(Cl)c3)C(=O)C21 (racemic)
solubility kinetic at 2 h [1]: 92 µM (≈ 44.1 µg/mL) | Stability [2]: Stable | Activity (Mus musculus [3]): Active | Activity (HeLa): Non-Toxic | Activity (Mus musculus [4]): inactive | Activity (Mus musculus [5]): Active | Activity (Vero [6]): Non-Toxic | Activity (Mus musculus [7]): Active | Activity (MDCK [8]): Non-Toxic | Activity (Mus musculus [9]): Active | IC50 [10]: > 10 µM | Activity (MT4): Non-Toxic | inhibition (INH) (Cytochrome P450 2D6): Not Active | solubility kinetic at 2 h [11]: 92 µM (≈ 44.1 µg/mL) | Activity (Mus musculus [12]): Active | solubility [13]: Soluble | Activity (MDCK [14]): Non-Toxic | inhibition (INH) (Cytochrome P450 3A4): Not Active | inhibition (INH) (Cytochrome P450 2C9): Not Active | inhibition (INH) (Cytochrome P450 1A2): Not Active | Activity (Vero [15]): Non-Toxic | Stability [16]: 100% | Stability [17]: Stable | pKi [18]: 6.92 | Activity (Mus musculus [19]): Active | IC50 (Nischarin): 912 µM | Ki (Nischarin): 912 µM | CC50 [20]: > 100 µM | inhibition (INH) (Cytochrome P450 2C19): Not Active | solubility [21]: Soluble
